Source: patent publication US20140298493A1, “PIK3CA H1047R Knock-In Non-Human Animal Breast Cancer Model” (priority 2011, published 2014)
“Also recorded” adds a separate entry of the source.

How the values were obtained:
[1] = test system: PIK3CA^e20H1047R mammary tumor explants (spindle cell tumor with TP53 mutations) grown as xenografts; experiment: Drug efficacy study: mammary tumor explants implanted subcutaneously near mammary fat pad, tumor growth inhibition and time to progression; format: in vivo, C.B-17 SCID beige mice
Protocol: Tumor sizes and mouse body weights were recorded twice weekly over the course of the study. […] The 2.5 and 97.5 percentiles of the simulated distribution were used as the […] UIs.

[2] = test system: pAKT and pS6 (PI3K pathway) in PIK3CA^e20H1047R mammary tumor explants; experiment: Western blot of tumors from GDC-0941 treated mice (PI3K pathway inhibition); format: in vivo, C.B-17 SCID beige mice; conditions: at least up to 10 hours following treatment
Protocol: Frozen tumors were weighed and lysed with a pestle PP (Scienceware, NJ) in cell extract buffer (Invitrogen, CA) supplemented with protease inhibitors (F. Hoffman-La Roche, Ltd., Germany), 1 mM phenylmethysulfonyl fluoride, and phosphatase inhibitor cocktails 1 and 2 (Sigma, Mo.). Protein concentrations were determined using the Pierce BCA Protein Assay Kit (Rockford, Ill.). For Western blots equal amounts of protein were separated by electrophoresis through NuPage Bis-Tris 4-12% gradient gels (Invitrogen, CA), proteins were transferred onto nitrocellulose pore membranes using the iBlot system (Invitrogen, CA). Primary antibodies used for blotting include pAkt (Ser473), pAkt (Thr308), total Akt, pS6 (Ser235/236), pS6 (Ser240/242) and total S6 antibodies were obtained from Cell Signaling Technology (Danvers, Mass.), and anti-actin antibody was purchased from Sigma-Aldrich (St. Louis, Mo.). Chemiluminescence western blotting detection (Amersham Biosciences, PA) coupled with appropriate secondary horseradish peroxidase-conjugated secondary IgG antibodies was employed, to detect the primary antibody bound proteins.

Structure (SMILES): CS(=O)(=O)N1CCN(Cc2cc3nc(-c4cccc5[nH]ncc45)nc(N4CCOCC4)c3s2)CC1 [GDC-0941]
- tumor growth inhibition (TGI) ([1]; 150 mg/kg, daily oral gavage for 13 days, % TGI relative to vehicle (AUC based), highest TGI): 85%
- response of tumor explants grown as xenografts to treatment ([1]; FIG. 5a legend): respond to treatment
- time to progression, log-rank test versus vehicle control ([1]; all doses tested (50, 100, 150 mg/kg), p<0.0001 at 150 mg/kg): statistically significant difference
- tumor growth inhibition compared to vehicle treatment ([1]; other doses tested (50 and 100 mg/kg), daily oral gavage for 13 days): tumor growth inhibition was also observed
- pAKT and pS6 in tumor from treated mice [2]: significant decrease in pAKT and pS6; also recorded: evidence of PI3K pathway inhibition
